Counter-ions that a name gives are not always drawn.
Target: human factor Xa (Homo sapiens, UniProt P00742)
Assay: Factor Xa chromogenic substrate inhibitor binding affinity assay (apparent Kass)
Details: 1.34 nM human factor Xa, 0.18 mM BzIle-Glu-Gly-Arg-pNA; mean value; read-out: Kass (apparent association constant) (converted)
Description: The inhibition by a compound of the inhibition of a serine protease of the human blood coagulation system or of the fibrinolytic system, as well as of trypsin, is determined in vitro for the particular enzyme by measuring its inhibitor binding affinity in an assay in which the enzyme hydrolyzes a particular chromogenic substrate, for example as described in Smith, G. F.; Gifford-Moore, D.; Craft, T. J.; Chirgadze, N.; Ruterbories, K. J.; Lindstrom, T. D.; Satterwhite, J. H. Efegatran: A New Cardiovascular Anticoagulant. New Anticoagulants for the Cardiovascular Patient; Pifarre, R., Ed.; Hanley & Belfus, Inc.: Philadelphia, 1997; pp. 265-300. The inhibitor binding affinity is measured as apparent association constant Kass which is the hypothetical equilibrium constant for the reaction between enzyme and the test inhibitor compound (I).
Enzyme+I⇄Enzyme−I [formula]
Conveniently, enzyme inhibition kinetics are performed in 96-well polystyrene plates and reaction rates are determined from the rate of hydrolysis of appropriate p-nitroanilide substrates at 405 nm using a Thermomax plate reader from Molecular Devices (San Francisco, Calif.). […] The rates of chromogenic substrate hydrolysis reactions provide a linear relationship with the enzymes studied such that free enzyme can be quantitated in reaction mixtures. […]

Sequence of human factor Xa (P00742 235-488 limits assumed): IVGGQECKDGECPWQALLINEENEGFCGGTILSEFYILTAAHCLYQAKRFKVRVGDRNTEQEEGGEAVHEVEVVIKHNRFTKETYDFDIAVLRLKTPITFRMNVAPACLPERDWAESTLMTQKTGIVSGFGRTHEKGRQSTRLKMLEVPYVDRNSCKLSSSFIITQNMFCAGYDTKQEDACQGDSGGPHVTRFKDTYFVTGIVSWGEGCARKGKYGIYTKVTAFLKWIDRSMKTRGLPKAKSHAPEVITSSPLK
Sequence of human factor Xa (P00742 41-179 partner limits assumed): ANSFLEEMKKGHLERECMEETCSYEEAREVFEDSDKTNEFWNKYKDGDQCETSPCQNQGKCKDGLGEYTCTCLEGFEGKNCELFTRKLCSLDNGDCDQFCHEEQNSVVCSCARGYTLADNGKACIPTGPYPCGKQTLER

O=C(NC1CCN(C(=O)C2CCN(c3ccncc3)CC2)C1)c1ccc2cc[nH]c2c1 (stereo not shown) [Example 1, 3-[(6-Indolyl)carbonyl]amino-1-[[1-(4-pyridinyl)piperidin-4-yl]carbonyl]pyrrolidine Hydrochloride Salt]
Kd: 472 nM
